Mutagenic call data for three molecules are collected here from PubChem BioAssay AID1259407 (Chemical Carcinogenesis Research Information System (CCRIS), 2018).

This data set concerns CCRIS mutagenicity, Ames/micronucleus/aberration tests. Description: CCRIS mutagenicity studies.
[1] abbreviates: Test System: AMES SALMONELLA TYPHIMURIUM, Strain/Indicator: TA100, Metabolic Activation: NONE, Method: STANDARD PLATE.

SMILES strings stand for the structures. Calls of active or inactive are those of the source. The rule behind the calls is not given here.

Regarding `ClC=C(Cl)Cl`, the mutagenic call by setting is: (End Point: IN VITRO CHROMOSOMAL ABERRATIONS, Test System: CHINESE HAMSTER LUNG FIBROBLAST CELLS (CHL/IU), Metabolic Activation: NONE) “inactive; negative”; (End Point: IN VITRO CHROMOSOMAL ABERRATIONS, Test System: CHINESE HAMSTER LUNG FIBROBLAST CELLS (CHL/IU), Metabolic Activation: RAT, LIVER, S-9, PHENOBARBITAL AND 5,6-BENZOFLAVONE) “inactive; negative”; (End Point: IN VITRO CHROMOSOMAL ABERRATIONS, Test System: CHINESE HAMSTER OVARY CELLS, Metabolic Activation: NONE) “inactive; negative; precipitation occurred at all doses”; (End Point: IN VITRO CHROMOSOMAL ABERRATIONS, Test System: CHINESE HAMSTER OVARY CELLS, Metabolic Activation: RAT, LIVER, S-9, AROCLOR 1254) “inactive; negative; precipitation occurred at all doses”; (End Point: IN VITRO MICRONUCLEUS, Test System: V79 CELLS, Metabolic Activation: NONE) “inactive; negative”; (End Point: IN VITRO MICRONUCLEUS, Test System: V79 CELLS, Metabolic Activation: RAT, LIVER, S-9, AROCLOR 1254) “inactive; negative”. Moreover, the mutagenic call reads like this: (Test System: AMES SALMONELLA TYPHIMURIUM, Strain/Indicator: TA97, Metabolic Activation: NONE, Method: STANDARD PLATE) “active; positive”; (Test System: AMES SALMONELLA TYPHIMURIUM, Strain/Indicator: TA97, Metabolic Activation: RAT, LIVER, S-9, AROCLOR 1254, Method: STANDARD PLATE) “active; positive”; (Test System: AMES SALMONELLA TYPHIMURIUM, Strain/Indicator: TA98, Metabolic Activation: HAMSTER, LIVER, S-9, AROCLOR 1254, Method: DESICCATOR) “inactive; negative”; (Test System: AMES SALMONELLA TYPHIMURIUM, Strain/Indicator: TA98, Metabolic Activation: HAMSTER, LIVER, S-9, AROCLOR 1254, Method: PREINCUBATION) “inactive; negative”; (Test System: AMES SALMONELLA TYPHIMURIUM, Strain/Indicator: TA98, Metabolic Activation: NONE, Method: DESICCATOR) “inactive; negative”; (Test System: AMES SALMONELLA TYPHIMURIUM, Strain/Indicator: TA98, Metabolic Activation: NONE, Method: PREINCUBATION) “inactive; negative”. Besides, the mutagenic call is “inactive; negative” (Test System: AMES SALMONELLA TYPHIMURIUM, Strain/Indicator: TA98, Metabolic Activation: NONE, Method: STANDARD PLATE); “inactive; negative” (Test System: AMES SALMONELLA TYPHIMURIUM, Strain/Indicator: TA98, Metabolic Activation: RAT, LIVER, S-9, AROCLOR 1254, Method: DESICCATOR); “inactive; negative” (Test System: AMES SALMONELLA TYPHIMURIUM, Strain/Indicator: TA98, Metabolic Activation: RAT, LIVER, S-9, AROCLOR 1254, Method: PREINCUBATION); “active; positive” (Test System: AMES SALMONELLA TYPHIMURIUM, Strain/Indicator: TA98, Metabolic Activation: RAT, LIVER, S-9, AROCLOR 1254, Method: STANDARD PLATE); “inactive; negative” (Test System: AMES SALMONELLA TYPHIMURIUM, Strain/Indicator: TA100, Metabolic Activation: HAMSTER, LIVER, S-9, AROCLOR 1254, Method: DESICCATOR); “inactive; negative” (Test System: AMES SALMONELLA TYPHIMURIUM, Strain/Indicator: TA100, Metabolic Activation: HAMSTER, LIVER, S-9, AROCLOR 1254, Method: PREINCUBATION). In addition, the mutagenic call (Test System: AMES SALMONELLA TYPHIMURIUM, Strain/Indicator: TA100, Metabolic Activation: MOUSE, LIVER, S-9, AROCLOR 1254, Method: DESICCATOR) was “active; positive”; the mutagenic call (Test System: AMES SALMONELLA TYPHIMURIUM, Strain/Indicator: TA100, Metabolic Activation: NONE, Method: DESICCATOR) is “inactive; negative”; the mutagenic call (Test System: AMES SALMONELLA TYPHIMURIUM, Strain/Indicator: TA100, Metabolic Activation: NONE, Method: PREINCUBATION) is “inactive; negative”; the mutagenic call under setting [1] was “inactive; negative”; the mutagenic call (Test System: AMES SALMONELLA TYPHIMURIUM, Strain/Indicator: TA100, Metabolic Activation: NONE, Method: VAPOR CHAMBER) was “inactive; negative”; the mutagenic call (Test System: AMES SALMONELLA TYPHIMURIUM, Strain/Indicator: TA100, Metabolic Activation: RAT, LIVER, S-9, AROCLOR 1254, Method: DESICCATOR) is “inactive; negative”. Also, the mutagenic call by setting is: (Test System: AMES SALMONELLA TYPHIMURIUM, Strain/Indicator: TA100, Metabolic Activation: RAT, LIVER, S-9, AROCLOR 1254, Method: PREINCUBATION) “inactive; negative”; (Test System: AMES SALMONELLA TYPHIMURIUM, Strain/Indicator: TA100, Metabolic Activation: RAT, LIVER, S-9, AROCLOR 1254, Method: STANDARD PLATE) “inactive; negative”; (Test System: AMES SALMONELLA TYPHIMURIUM, Strain/Indicator: TA102, Metabolic Activation: S-9, Method: STANDARD PLATE) “inactive; negative”; (Test System: AMES SALMONELLA TYPHIMURIUM, Strain/Indicator: TA104, Metabolic Activation: NONE, Method: STANDARD PLATE) “inactive; negative”; (Test System: AMES SALMONELLA TYPHIMURIUM, Strain/Indicator: TA104, Metabolic Activation: RAT, LIVER, S-9, AROCLOR 1254, Method: STANDARD PLATE) “inactive; negative”; (Test System: AMES SALMONELLA TYPHIMURIUM, Strain/Indicator: TA1535, Metabolic Activation: HAMSTER, LIVER, S-9, AROCLOR 1254, Method: PREINCUBATION) “inactive; negative”. Further, the mutagenic call by setting is: (Test System: AMES SALMONELLA TYPHIMURIUM, Strain/Indicator: TA1535, Metabolic Activation: NONE, Method: DESICCATOR) “active; positive”; (Test System: AMES SALMONELLA TYPHIMURIUM, Strain/Indicator: TA1535, Metabolic Activation: NONE, Method: PREINCUBATION) “inactive; negative”; (Test System: AMES SALMONELLA TYPHIMURIUM, Strain/Indicator: TA1535, Metabolic Activation: NONE, Method: VAPOR CHAMBER) “inactive; negative”; (Test System: AMES SALMONELLA TYPHIMURIUM, Strain/Indicator: TA1535, Metabolic Activation: RAT, LIVER, S-9, AROCLOR 1254, Method: DESICCATOR) “active; positive”; (Test System: AMES SALMONELLA TYPHIMURIUM, Strain/Indicator: TA1535, Metabolic Activation: RAT, LIVER, S-9, AROCLOR 1254, Method: PREINCUBATION) “inactive; negative”; (Test System: AMES SALMONELLA TYPHIMURIUM, Strain/Indicator: TA1537, Metabolic Activation: HAMSTER, LIVER, S-9, AROCLOR 1254, Method: PREINCUBATION) “inactive; negative”. Further, the mutagenic call was “inactive; negative” (Test System: AMES SALMONELLA TYPHIMURIUM, Strain/Indicator: TA1537, Metabolic Activation: NONE, Method: PREINCUBATION); “inactive; negative” (Test System: AMES SALMONELLA TYPHIMURIUM, Strain/Indicator: TA1537, Metabolic Activation: RAT, LIVER, S-9, AROCLOR 1254, Method: PREINCUBATION); “inactive; negative” (Test System: AMES SALMONELLA TYPHIMURIUM, Strain/Indicator: TA2638, Metabolic Activation: S-9, Method: STANDARD PLATE); “inactive; negative” (Test System: E. COLI, Strain/Indicator: WP2 (PKM101), Metabolic Activation: S-9, Method: STANDARD PLATE); “inactive; negative” (Test System: E. COLI, Strain/Indicator: WP2 UVRA (PKM101), Metabolic Activation: S-9, Method: STANDARD PLATE); “inactive; negative” (Test System: MOUSE LYMPHOMA, Strain/Indicator: L5178Y (TK+/TK-), Metabolic Activation: NONE, Method: SUSPENSION/PLATE). Also, the mutagenic call (Test System: MOUSE LYMPHOMA, Strain/Indicator: L5178Y (TK+/TK-), Metabolic Activation: RAT, LIVER, S-9, AROCLOR 1254, Method: SUSPENSION/PLATE) is “active; positive”.
As to `CC[C@H]1OC(=O)[C@H](C)[C@@H](O[C@H]2C[C@@](C)(OC)[C@@H](O)[C@H](C)O2)[C@H](C)[C@@H](O[C@@H]2O[C@H](C)C[C@H](N(C)C)[C@H]2O)[C@](C)(O)C[C@@H](C)[C@@H]2N[C@@H](COCCOC)O[C@H]([C@H]2C)[C@]1(C)O`, the mutagenic call runs as follows: (End Point: In vitro chromosomal aberrations, Test System: Chinese hamster lung (CHL) cells, Metabolic Activation: None) “inactive; negative”; (End Point: In vitro chromosomal aberrations, Test System: Chinese hamster lung (CHL) cells, Metabolic Activation: S-9) “inactive; negative”.
Turning to `C=C(Br)C(C)=O`, the mutagenic call under setting [1] was “active; positive”.
